{"source": "patent US20240174675A1", "about": "“SMALL MOLECULE REGULATORS OF ALVEOLAR TYPE 2 CELL PROLIFERATION FOR THE TREATMENT OF PULMONARY DISEASES” (THE SCRIPPS RESEARCH INSTITUTE, priority 2021, published 2024)", "note": "Counter-ions that a name gives are not always drawn.", "data": [{"target": "T1, Human DPP4 (Homo sapiens, UniProt P27487)", "T1 construct": "purchased Sigma-Aldrich MAK088", "T1 sequence (P27487 whole entry)": "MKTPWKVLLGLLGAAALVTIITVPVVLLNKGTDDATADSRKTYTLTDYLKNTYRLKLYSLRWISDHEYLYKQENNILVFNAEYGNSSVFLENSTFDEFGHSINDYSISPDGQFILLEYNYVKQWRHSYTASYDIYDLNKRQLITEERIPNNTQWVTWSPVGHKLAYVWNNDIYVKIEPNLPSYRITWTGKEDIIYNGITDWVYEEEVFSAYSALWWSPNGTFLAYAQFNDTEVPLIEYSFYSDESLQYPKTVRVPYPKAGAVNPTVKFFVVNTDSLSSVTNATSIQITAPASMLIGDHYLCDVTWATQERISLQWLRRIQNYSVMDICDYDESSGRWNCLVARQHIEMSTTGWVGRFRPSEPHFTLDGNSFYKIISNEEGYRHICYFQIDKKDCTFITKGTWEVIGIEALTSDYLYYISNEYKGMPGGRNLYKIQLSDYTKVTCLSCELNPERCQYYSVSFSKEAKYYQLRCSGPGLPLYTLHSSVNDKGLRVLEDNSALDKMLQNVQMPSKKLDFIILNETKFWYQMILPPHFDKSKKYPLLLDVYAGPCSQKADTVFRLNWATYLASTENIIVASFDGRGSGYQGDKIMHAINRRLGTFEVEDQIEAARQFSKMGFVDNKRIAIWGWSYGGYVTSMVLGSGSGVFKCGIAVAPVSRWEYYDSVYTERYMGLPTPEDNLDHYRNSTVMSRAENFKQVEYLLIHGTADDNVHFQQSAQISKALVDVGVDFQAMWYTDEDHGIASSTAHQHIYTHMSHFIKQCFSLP", "experiment": "DPP4 activity assay (DPP4 Activity Assay Kit, fluorescent substrate)", "format": "biochemical", "conditions": "Human DPP4; read-out: DPP4 inhibition IC50 [nM])", "method": "DPP4 activity assay. Human DPP4 activity assay data were obtained using a DPP4 Activity Assay Kit (Sigma-Aldrich, MAK088) according to the manufacturer's instructions. Briefly, 10 μL of DPP4 Assay Buffer were transferred per well in low volume 384-well plates before transferring 10 μL of test compound dissolved in DPP4 assay buffer. To each well was added 5 μL of Master Reaction Mix containing a fluorescent substrate that becomes fluorescent upon cleavage by the enzyme. Fluorescence intensity measurements were recorded at 1-minute time intervals over the course of 20 minutes using an Envision Multimode Plate Reader (PerkinElmer).", "units": {"IC50": "nM"}, "values": [{"smiles": "CCCCCCCS(=O)C12CC3C[C@@H](CC(NCC(=O)N4CCC[C@H]4C#N)(C3)C1)C2", "note": "(stereo in doubt) [Compound 3, (2S)-1-(((1S,3R,5S)-3-(heptylsulfinyl)adamantan-1-yl)glycyl)pyrrolidine-2-carbonitrile]", "IC50": 9}, {"smiles": "CCCCCCN(CCc1ccc(OCCNC(=O)OCCSC23CC4C[C@@H](CC(NCC(=O)N5CCC[C@H]5C#N)(C4)C2)C3)cc1)C[C@H](O)[C@@H](O)[C@H](O)[C@H](O)CO", "note": "(stereo in doubt) [Compound 4, 2-(((1R,3S,5S)-3-((2-((S)-2-cyanopyrrolidin-1-yl)-2-oxoethyl)amino)adamantan-1-yl)thio)ethyl (2-(4-(2-(hexyl((2S,3R,4R,5R)-2,3,4,5,6-pentahydroxyhexyl)amino)ethyl)phenoxy)ethyl)carbamate]", "IC50": 11}, {"smiles": "N#C[C@@H]1CCCN1C(=O)CN[C@]12CC3CC(C1)C[C@@](OCCO)(C3)C2", "note": "(stereo in doubt) [Compound 5, (2S)-1-(((1S,3R,5S)-3-(2-hydroxyethoxy)adamantan-1-yl)glycyl)pyrrolidine-2-carbonitrile]", "IC50": 2.3}, {"smiles": "CCCCCCCOC12CC3C[C@@H](CC(NCC(=O)N4CCC[C@H]4C#N)(C3)C1)C2", "note": "(stereo in doubt) [Compound 6]", "IC50": 31}, {"smiles": "N#C[C@@H]1CCCN1C(=O)CN[C@]12CC3CC(C1)C[C@@](OCCOCCNC[C@H](O)[C@@H](O)[C@H](O)[C@H](O)CO)(C3)C2", "note": "(stereo in doubt) [Compound 11, (2S)-1-(((1S,3R,5S)-3-(2-(2-(((2S,3R,4R,5R)-2,3,4,5,6-pentahydroxyhexyl)amino)ethoxy)ethoxy)adamantan-1-yl)glycyl)pyrrolidine-2-carbonitrile]", "IC50": 31.6}, {"smiles": "CCCCCCN(CCc1ccc(OCCNC(=O)OCCOC23CC4C[C@@H](CC(NCC(=O)N5CCC[C@H]5C#N)(C4)C2)C3)cc1)C[C@H](O)[C@@H](O)[C@H](O)[C@H](O)CO", "note": "(stereo in doubt) [Compound 13, 2-(((1R,3S,5S)-3-((2-((S)-2-cyanopyrrolidin-1-yl)-2-oxoethyl)amino)adamantan-1-yl)oxy)ethyl (2-(4-(2-(hexyl((2S,3R,4R,5R)-2,3,4,5,6-pentahydroxyhexyl)amino)ethyl)phenoxy)ethyl)carbamate]", "IC50": 23}, {"smiles": "N#C[C@@H]1C[C@@H]2C[C@@H]2N1C(=O)[C@@H](N)[C@]12CC3CC(C[C@](OCCOC(=O)NCc4ccc(CN(C[C@@H](O)[C@H](O)[C@@H](O)[C@@H](O)CO)C[C@@H](O)[C@H](O)[C@@H](O)[C@@H](O)CO)cc4)(C3)C1)C2", "note": "(stereo in doubt) [Compound 22, 2-(((1R,3S,5S)-3-((S)-1-amino-2-((1S,3S,5S)-3-cyano-2-azabicyclo[3.1.0]hexan-2-yl)-2-oxoethyl)adamantan-1-yl)oxy)ethyl (4-((bis((2S,3R,4R,5R)-2,3,4,5,6-pentahydroxyhexyl)amino)methyl)benzyl)carbamate trifluoracetate salt]", "IC50": 6.6}, {"smiles": "CCCCCCCC(=O)OC12CC3C[C@@H](CC(NCC(=O)N4CCC[C@H]4C#N)(C3)C1)C2", "note": "(stereo in doubt) [Compound 24]", "IC50": 238}, {"smiles": "CCCCCCCOC(=O)NC12CC3CC(CC(NCC(=O)N4CCC[C@H]4C#N)(C3)C1)C2", "note": "[Compound 1, Heptyl(3-((2-((S)-2-cyanopyrrolidin-1-yl)-2-oxoethyl)amino)adamantan-1-yl)carbamate]", "IC50": 31}, {"smiles": "CCCCCCCSC12CC3C[C@@H](CC(NCC(=O)N4CCC[C@H]4C#N)(C3)C1)C2", "note": "[Compound 2, (2S)-1-((3-(heptylthio)adamantan-1-yl)glycyl)pyrrolidine-2-carbonitrile]", "IC50": 26}, {"smiles": "CCCCCCCC(=O)OCOC12CC3CC(CC(NCC(=O)N4CCC[C@H]4C#N)(C3)C1)C2", "note": "[Compound 7, ((3-((2-((S)-2-cyanopyrrolidin-1-yl)-2-oxoethyl)amino)adamantan-1-yl)oxy)methyl Octanoate]", "IC50": 32}, {"smiles": "CCCCCCN(Cc1cn(CCOCCOCCOC23CC4CC(CC(NCC(=O)N5CCC[C@H]5C#N)(C4)C2)C3)nn1)C[C@H](O)[C@@H](O)[C@H](O)[C@H](O)CO", "note": "[Compound 8, (2S)-1-(((1S,3R,5S)-3-(2-(2-(2-(4-((hexyl((2S,3R,4R,5R)-2,3,4,5,6-pentahydroxyhexyl)amino)methyl)-1H-1,2,3-triazol-1-yl)ethoxy)ethoxy)ethoxy)adamantan-1-yl)glycyl)pyrrolidine-2-carbonitrile]", "IC50": 14.2}, {"smiles": "N#C[C@@H]1CCCN1C(=O)CN[C@@]12CC3C[C@@H](C1)C[C@](OCCOCCn1cc(CN(C[C@H](O)[C@@H](O)[C@H](O)[C@H](O)CO)C[C@H](O)[C@@H](O)[C@H](O)[C@H](O)CO)nn1)(C3)C2", "note": "[Compound 9, (2S)-1-(((1S,3R,5S)-3-(2-(2-(4-((bis((2S,3R,4R,5R)-2,3,4,5,6-pentahydroxyhexyl)amino)methyl)-1H-1,2,3-triazol-1-yl)ethoxy)ethoxy)adamantan-1-yl)glycyl)pyrrolidine-2-carbonitrile]", "IC50": 10.8}, {"smiles": "N#C[C@@H]1CCCN1C(=O)CN[C@@]12CC3C[C@@H](C1)C[C@](OCCOCCN(C[C@H](O)[C@@H](O)[C@H](O)[C@H](O)CO)C[C@H](O)[C@@H](O)[C@H](O)[C@H](O)CO)(C3)C2", "note": "[Compound 10, (2S)-1-(((1S,3R,5S)-3-(2-(2-(bis((2S,3R,4R,5R)-2,3,4,5,6-pentahydroxyhexyl)amino)ethoxy)ethoxy)adamantan-1-yl)glycyl)pyrrolidine-2-carbonitrile]", "IC50": 20.8}, {"smiles": "CCN(Cc1ccc(CNC(=O)OCCOCCO[C@@]23CC4C[C@@H](C[C@@](NCC(=O)N5CCC[C@H]5C#N)(C4)C2)C3)cc1)C[C@H](O)[C@@H](O)[C@H](O)[C@H](O)CO", "note": "[Compound 12, 2-(2-(((1R,3S,5S)-3-((2-((S)-2-cyanopyrrolidin-1-yl)-2-oxoethyl)amino)adamantan-1-yl)oxy)ethoxy)ethyl (4-((ethyl((2S,3R,4R,5R)-2,3,4,5,6-pentahydroxyhexyl)amino)methyl)benzyl)carbamate]", "IC50": 7.9}, {"smiles": "N#C[C@@H]1CCCN1C(=O)CN[C@@]12CC3C[C@@H](C1)C[C@](OCCOCCn1cc(CNC[C@H](O)[C@@H](O)[C@H](O)[C@H](O)CO)nn1)(C3)C2", "note": "[Compound 14, (2S)-1-(((1S,3R,5S)-3-(2-(2-(4-((((2S,3R,4R,5R)-2,3,4,5,6-pentahydroxyhexyl)amino)methyl)-1H-1,2,3-triazol-1-yl)ethoxy)ethoxy)adamantan-1-yl)glycyl)pyrrolidine-2-carbonitrile]", "IC50": 8.2}, {"smiles": "CCCCCCN(Cc1cn(CCOCCOC23CC4CC(CC(NCC(=O)N5CCC[C@H]5C#N)(C4)C2)C3)nn1)C[C@H](O)[C@@H](O)[C@H](O)[C@H](O)CO", "note": "[Compound 15]", "IC50": 17.4}, {"smiles": "N#C[C@@H]1C[C@@H]2C[C@@H]2N1C(=O)[C@@H](N)[C@]12CC3C[C@H](C[C@](OCCO)(C3)C1)C2", "note": "[Compound 16, (1S,3S,5S)-2-((2S)-2-amino-2-((1S,3R,5S)-3-(2-hydroxyethoxy)adamantan-1-yl)acetyl)-2-azabicyclo[3.1.0]hexane-3-carbonitrile]", "IC50": 7.9}, {"smiles": "N#C[C@@H]1C[C@@H]2C[C@@H]2N1C(=O)[C@@H](N)C12CC3C[C@H](CC(OCCOC(=O)CNc4ccc(CN(CCO)CCO)cc4)(C3)C1)C2", "note": "[Compound 18]", "IC50": 12}, {"smiles": "CCCCCCN(Cc1cn(CCOCCOC23CC4C[C@H](C2)CC([C@H](N)C(=O)N2[C@H](C#N)C[C@@H]5C[C@@H]52)(C4)C3)nn1)C[C@H](O)[C@@H](O)[C@H](O)[C@H](O)CO", "note": "[Compound 20]", "IC50": 47.8}]}]}
